Where “and” joins values, the source holds several entries; their conditions need not be identical. Equal entries are not always repeated.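 Briefly, cells in 96-well plates were exposed to five compound concentrations for 48 h, and endpoints were estimated by linear interpolation. The concentration for 50% growth inhibition is given as GI50. The concentration for full growth arrest is given as TGI.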

Common to all, as to assay: growth of human tumour cells (NCI), 48 h
Test [1] concerns T-47D breast.
Test [2] has as its system SK-MEL-2 melanoma.
For test [3], the system named is NCI-H23 lung.
Test [4] relates to LOX IMVI melanoma.
Test [5] has as its system NCI-H460 lung.
Test [6] concerns HCC-2998 colon.
Test [7] deals with U251 CNS.
The test system of test [8] is SW-620 colon.
Test [9] relates to RXF 393 renal.
Test [10] has as its system EKVX NSCLC.

`Cc1c(CN2CCC(Nc3ncnc4sc(CC(F)(F)F)cc34)CC2)ccc2c1cc(C#N)n2Cc1cn[nH]c1`: the GI50 in test [1] was 0.897 µM and 1.06 µM; in [2] it was 8.97 µM and 9.33 µM; in [3], 1.33 µM and 2.23 µM; in test [4], 1.35 µM and 2.36 µM; in test [5], 2.19 µM and 2.8 µM; in [6], 1.86 µM and 2.8 µM. For the same compound, the GI50 was 4.65 µM and 3.16 µM in test [7]; 1.81 µM and 2.19 µM in test [8]; 1.94 µM and 2.74 µM in test [9]; 1.92 µM and 3.08 µM in test [10]. Further, the TGI was 16.9 µM in test [1]; 26.3 µM and 26.5 µM in test [2]; 18.9 µM in [3]; 2.88 µM and 7.5 µM in [4]; 7.31 µM in test [5]; 4.38 µM and 10.9 µM in test [6]. The TGI in [7] is 19.6 µM; in [8], 4.97 µM; in test [9], 12.9 µM and 10.5 µM; in test [10], 21.2 µM and > 43.4 µM.
With `c1ccc2[nH]c(-c3ccc(OCCCCCOc4ccc(-c5nc6ccccc6[nH]5)cc4)cc3)nc2c1`, the GI50 in [1] was 0.822 µM; in [2] it was 6.23 µM; in test [3], 8.89 µM; in test [4] it was 1.22 µM; in test [5], 1.6 µM; in test [6], 2.31 µM. The GI50 is 1.91 µM in [7], 1.02 µM in test [8], 1.48 µM in [9] and 14.8 µM in test [10]. The TGI in test [1] is 2.13 µM; in test [2], 12.7 µM; in test [3] it was 26 µM; in [4], 2.57 µM; in [5], greater than 100 µM; in test [6], 7.59 µM. Further, the TGI in [7] was 4.17 µM; in test [8] it was 3.69 µM; in [9], 3.08 µM; in test [10], greater than 70.4 µM.
On to `CN(C)CCNC(=O)c1cc([N+](=O)[O-])ccn1`, for which the TGI is 78.1 µM in [1]; 67.5 µM in test [2]; 47.1 µM in test [3]; 96.9 µM in test [4]; greater than 100 µM in test [5]; greater than 100 µM in test [6]. Besides, the TGI in [7] is 92.8 µM; in test [8], greater than 100 µM; in [9], greater than 100 µM; in test [10] it was greater than 100 µM.
For `Fc1ccc(-c2nnc3sc(-c4cccc(Cl)c4)nn23)cc1Cl`, the GI50 in test [1], in test [2], in test [3], in test [4], in [5] and in test [6] was greater than 100 µM throughout. Besides, the GI50 was greater than 100 µM in test [7], greater than 100 µM in test [8], 39.5 µM in test [9] and greater than 100 µM in test [10]. Besides, the TGI in [1], in test [2], in test [3], in [4], in test [5] and in test [6] was greater than 100 µM each time. Further, the TGI in [7], in test [8], in test [9] and in test [10] was greater than 100 µM in each case.
Turning to `CC1(C)N=C(N)N=C(N)N1c1cccc(CCCCc2ccc(S(=O)(=O)F)cc2Cl)c1`, the GI50 in [1] was 14 µM; in test [2], 6.42 µM; in test [3], 4.27 µM; in [4], 1.34 µM; in test [5], 0.465 µM; in test [6], 5.47 µM. For the same compound, the GI50 in test [7] is 0.722 µM; in test [8], 0.701 µM; in test [9], 9.46 µM; in test [10], 2.02 µM. Moreover, the TGI in test [1] was 34.5 µM; in test [2], greater than 58.5 µM; in test [3], 27.3 µM; in test [4] it was greater than 41.7 µM; in test [5], greater than 38.6 µM; in test [6] it was 38.8 µM. For the same compound, the TGI in test [7] is 20.4 µM; in test [8], greater than 39.8 µM; in test [9], greater than 87.3 µM; in test [10] it was greater than 67.5 µM.
Turning to `NC(=NC1CCCCCC1)c1ccc(N2CCN(c3ccc(C(N)=NC4CCCCCC4)cc3)CC2)cc1`, the GI50 is 15.2 µM in test [1]; 7.65 µM in [2]; 4.77 µM in test [3]; 3.05 µM in test [4]; 3.65 µM in [5]; 8.9 µM in test [6]. The GI50 in test [7] was 3.02 µM; in [8] it was 10.8 µM; in [9], 9.99 µM; in test [10], 1.44 µM. Also, the TGI is greater than 50 µM in [1]; 18.1 µM in test [2]; 18.5 µM in test [3]; 20.3 µM in test [4]; 16.8 µM in test [5]; greater than 50 µM in test [6]. Also, the TGI was 11.3 µM in test [7], greater than 50 µM in [8], 35.6 µM in [9] and 23 µM in test [10].
Take `Cc1cc(-c2nc3ccc(O)cc3s2)ccc1N`: the GI50 in test [1] was 22.6 µM; in test [2] it was greater than 100 µM; in test [3] it was 12.5 µM; in test [4], greater than 100 µM; in [5], 38.9 µM; in test [6], greater than 100 µM. The GI50 in test [7] is 31.3 µM; in test [8] it was 66.8 µM; in test [9], 30.5 µM; in test [10], 4.07 µM. For the same compound, the TGI is greater than 100 µM in test [1]; greater than 100 µM in [2]; 43.7 µM in test [3]; greater than 100 µM in test [4]; greater than 100 µM in [5]; greater than 100 µM in test [6]. The TGI was greater than 100 µM in test [7], greater than 100 µM in [8], greater than 100 µM in test [9] and 58.3 µM in test [10].
Turning to `CCc1ccc(CCC(=O)Nc2ncc(Cc3ccccc3)s2)o1`, the GI50 in test [1] is 2.6 µM; in test [2], 5.42 µM; in test [3], 4.47 µM; in [4], 6 µM; in test [5], 3.06 µM; in test [6] it was 3.24 µM. The GI50 in test [7] was 3.06 µM; in [8] it was 0.889 µM; in [9], 2.45 µM; in [10], 4.6 µM. Besides, the TGI in [1], in test [2], in test [3], in test [4], in [5] and in test [6] was greater than 100 µM throughout. Moreover, the TGI in test [7] is greater than 100 µM; in [8], greater than 100 µM; in test [9], 9.13 µM; in [10] it was greater than 100 µM.
As for `CN1CCN(Cc2ccc(NC(=O)c3[nH]ncc3Nc3ncnc4c3CCC4)cc2)CC1`, the GI50 in [1] is 3.72 µM; in test [2], 2.14 µM; in test [3], 1.8 µM; in [4], 0.817 µM; in test [5] it was 1.87 µM; in [6] it was 3.02 µM. In addition, the GI50 in [7] is 1.48 µM; in [8], 0.836 µM; in [9] it was 1.4 µM; in test [10] it was 2.38 µM. Also, the TGI came to 22.7 µM in test [1]; 6.63 µM in test [2]; 6.79 µM in [3]; 3.1 µM in test [4]; 10.6 µM in test [5]; 11.6 µM in test [6]. Also, the TGI in test [7] came to 12.4 µM; in test [8], 10.3 µM; in test [9] it was 3.23 µM; in [10], 6.6 µM.
Regarding `COC[C@H]1OC(=O)c2coc3c2[C@@]1(C)C1=C(C3=O)[C@@H]2CCC(=O)[C@@]2(C)C[C@H]1OC(C)=O`, the TGI was greater than 46.2 µM in test [1]; 16.6 µM in test [2]; greater than 100 µM in [3]; 53.8 µM in test [4]; greater than 100 µM in test [5]; 20 µM in test [6]. The TGI was greater than 100 µM in [7], greater than 100 µM in test [8], 3.07 µM in [9] and greater than 100 µM in [10]. The GI50 in test [7] is 36.8 µM; in test [9], 0.264 µM.
Regarding `Cc1ccc(NS(=O)(=O)c2cc(C)ccc2C)cc1`, the GI50 in [1] is 6.09 µM; in test [2], 3.2 µM; in test [3] it was 4.65 µM; in test [4], 5.13 µM; in test [5] it was 3.4 µM; in test [6], 7 µM. Moreover, the GI50 in [7] was 4.25 µM; in test [8] it was 2.58 µM; in test [9], 2.9 µM; in test [10], 11.8 µM. Moreover, the TGI was greater than 100 µM in [1]; 9.64 µM in test [2]; 50.5 µM in test [3]; 22.5 µM in [4]; 13.5 µM in [5]; 28 µM in [6]. Also, the TGI was 23.8 µM in test [7], greater than 100 µM in [8], 16.7 µM in test [9] and 92.7 µM in test [10].
Turning to `COc1ccc(C(=O)c2cc(OC)c(OC)c(OC)c2)cc1O`, the GI50 is 26 µM in [1]; 0.238 µM in [2]; 0.055 µM in [3]; 0.0114 µM in [4]; 0.0373 µM in [5]; 0.0832 µM in [6]. In addition, the GI50 in [7] is 0.0425 µM; in test [8], less than 0.01 µM; in test [9] it was 0.0167 µM; in test [10], 0.791 µM. The TGI in test [1], in [2], in test [3], in [4], in test [5] and in [6] was greater than 100 µM in each case. In addition, the TGI in test [7], in test [8], in test [9] and in test [10] was greater than 100 µM each time.
Turning to `O=C(Nc1ccc2oc(=O)c(C(=O)O)cc2c1)Oc1ccccc1`, the TGI in [1], in test [2], in [3], in test [4], in [5] and in test [6] was greater than 100 µM each time. Besides, the TGI in test [7], in test [8], in [9] and in test [10] was greater than 100 µM throughout.
As for `CC(=O)Oc1cccc2c1C(=O)C(Br)(Br)CCC2`, the TGI stood at 4.61 µM in [1]; 21.5 µM in [2]; 18.7 µM in [3]; 6.26 µM in test [4]; 43.6 µM in test [5]; 31.1 µM in test [6]. Moreover, the TGI stood at 23.7 µM in test [7], 9.13 µM in test [8], 12.6 µM in test [9] and 26.7 µM in test [10].
For the compound `O=c1[nH]nc2c3c(cccc13)NC(CN1Cc3ccccc3C1)=N2`, the GI50 in test [1] is 5.27 µM; in test [2], greater than 100 µM; in test [3] it was 4.41 µM; in test [4], 3.16 µM; in test [5], 5.25 µM; in test [6], 4.35 µM. Moreover, the GI50 in test [7] was 8.05 µM; in [8], 7.03 µM; in test [9], 3.79 µM; in [10] it was 3.92 µM. The TGI in test [1], in test [2], in [3], in test [4], in [5] and in test [6] was greater than 100 µM in each case. The TGI in test [7] is greater than 100 µM; in test [8], greater than 100 µM; in [9], 74.1 µM; in [10], greater than 100 µM.
For `CCS(=O)(=O)c1ccc(OC)c(Nc2nccc(N(C)c3ccc4c(C)[nH]nc4c3)n2)c1`, the GI50 in test [1] is 4.77 µM; in [2], 5.45 µM; in [3] it was 6.05 µM; in test [4] it was 4.29 µM; in test [5] it was 8.67 µM; in [6] it was 8.18 µM. For the same compound, the GI50 was 7.28 µM in [7], 7.85 µM in test [8], 2.7 µM in [9] and 6.85 µM in test [10]. The TGI in test [1] is 21.9 µM; in test [2], 14.9 µM; in [3], greater than 25 µM; in test [4], 12 µM; in test [5] it was greater than 25 µM; in test [6], greater than 25 µM. In addition, the TGI was greater than 25 µM in [7], greater than 25 µM in test [8], 7.81 µM in [9] and greater than 25 µM in test [10].

The values above are taken from PubChem BioAssay (NCI).
